Measurements published in patent US10717777B2, “Synthetic lung surfactant with enhanced stability and effectiveness” (The Lundquist Institute for Biomedical Innovation at …, priority 2015, dated 2020).

Assay: Surface activity by captive bubble surfactometry (quasi-static cycling)
Format: physicochemical
Conditions: FIG. 2; B-YL, B-LYL, B-AYL at 3% in 5:3:2 (wt:wt:wt) DPPC:POPC:POPG; S-MB, S-MB-DATK, MB-DATK added for comparison
Method: In this example, surface activity of the various peptides disclosed in the present disclosure were measured in mixtures of peptides and lipids using captive bubble surfactometry.
This example used peptide concentrations of 2-4% and a lipid mixture consisting of 5:3:2 (wt:wt:wt) DPPC:POPC:POPG. Lipids only were used a negative control and the clinical surfactant Infasurf™ as a positive control.
Low surface tension equals high surface activity.
Minimum tension values during the first 10 cycles of quasi-static cycling on the captive bubble surfactometer are compared with those of lipids only.
FIG. 2 compares 3% of B-YL (SEQ ID NO: 27), B-LYL (SEQ ID NO: 28) and B-AYL (SEQ ID NO: 29) in 5:3:2 (wt:wt:wt) DPPC:POPC:POPG with lipids only (negative control) and the clinical surfactant Infasurf™ (positive control). For comparison the minimum surface tension values of Super Mini-B (S-MB), Super Mini-B-DATK (S-MB-DATK) and Mini-B-DATK (MB-DATK) have been added to the figure.

Sequence: CWLCRALIKRIQAMIDATKRMLPQLVCRLVLRCS [Mini-B-DATK, Mini-B analog with DATK turn, added for comparison]
- Surface activity (minimum surface tension) as compared to the negative control (lipids only): excellent surface activity

Sequence: FPIPLPYCWLCRALIKRIQAMIDATKRMLPQLVCRLVLRCS [Super Mini-B-DATK, Super Mini-B analog with DATK turn, added for comparison]
- Surface activity (minimum surface tension) as compared to the negative control (lipids only): excellent surface activity

Sequence: FPIPLPYCWLCRALIKRIQAMIPKGGRMLPQLVCRLVLRCS [Super Mini-B]
- Surface activity (minimum surface tension) as compared to the negative control (lipids only): excellent surface activity

Sequence: FPIPLPYLWLYRALIKRIQALIPKGGRLLPQLVYRLVLRLS [B-LYL]
- Surface activity (minimum surface tension) as compared to the negative control (lipids only): excellent surface activity

Sequence: FPIPLPYYWLYRALIKRIQALIPKGGRLLPQLVYRLVLRYS [B-YL]
- Surface activity (minimum surface tension) as compared to the negative control (lipids only): excellent surface activity
